Measured values from patent US10966951B2, “Compositions and methods for lowering triglycerides in a subject having reduced kidney function” (Amarin Pharmaceuticals Ireland Limited, priority 2017, dated 2021).

Assay: Essential fatty acid parameters in RBC, 6-week AAMI study (Example 2)
Type: in vivo, human
Procedure: A single-center, 6-week, double-blind, randomized, parallel-group, placebo-controlled, dose-ranging pilot study was performed to evaluate the efficacy, tolerability, and safety of >96% E-EPA in subjects with subjective and objective memory impairment according to generally accepted criteria for Age-Associated Memory Impairment (“AAMI”). The primary objective of the study was to determine the effect of >96% E-EPA 1 g, 2 g, and 4 g daily, compared to placebo, on cognitive performance in subjects with AAMI.
Ninety-four subjects were randomized into one of six groups: 1 g E-EPA daily (n=23), 2 g E-EPA daily (n=24), 4 g E-EPA daily (n=24), 1 g placebo daily (n=7), 2 g placebo daily (n=8), and 4 g placebo daily (n=8). E-EPA was provided as 500 mg soft gel capsules containing >96% E-EPA and 0.2% dl-α-tocopherol as an antioxidant. Placebo capsules contained 467 mg of liquid paraffin and 0.2% dl-α-tocopherol. Ninety-one subjects completed the study. Two subjects in the 2 g E-EPA group and one subject in the 2 g placebo group discontinued the study.
Blood samples (10 mL) were collected at Visit 1 (screening) and at Visits 4, 5, and 6. Analysis was performed by MSR Lipid Analysis, Scottish Crop Research Institute, Dundee, UK. The screening sample acted as baseline for the EFA measurements. Lipid was extracted from plasma, serum, and RBC suspensions and converted into fatty acid methyl esters which were analyzed by gas chromatography to give fatty acid profiles as micrograms fatty acid per gram of sample ([…]) and normalized area percent.
RBC and plasma EFA data were collected at baseline, Day 14, 28, and 42 and summarized by visit for each treatment group. Change from baseline and percent change from baseline were also summarized. ANCOVA comparison of E-EPA dose groups and E-EPA versus placebo was performed.

CC/C=C\C/C=C\C/C=C\C/C=C\C/C=C\CCCC(=O)OCC [E-EPA, ethyl eicosapentaenoate]
AA Mean change from Baseline, Mean (SD) (1 g daily, Day 14): −8.1 (21.95) μg/g
DGLA Mean change from Baseline, Mean (SD) (1 g daily, Day 14): −2.7 (3.82) μg/g
DHA Mean change from Baseline, Mean (SD) (1 g daily, Day 14): −4.6 (9.76) μg/g
EPA/AA Mean change from Baseline, Mean (SD) (1 g daily, Day 14): 0.1 (0.04)
AA Mean change from Baseline, Mean (SD) (1 g daily, Day 28): −17.0 (20.69) μg/g
DGLA Mean change from Baseline, Mean (SD) (1 g daily, Day 28): −3.8 (3.31) μg/g
DHA Mean change from Baseline, Mean (SD) (1 g daily, Day 28): −6.4 (11.57) μg/g
EPA/AA Mean change from Baseline, Mean (SD) (1 g daily, Day 28): 0.1 (0.05)
DGLA Mean change from Baseline, Mean (SD) (1 g daily, Day 42): −3.5 (4.51) μg/g
DHA Mean change from Baseline, Mean (SD) (1 g daily, Day 42): −7.0 (12.20) μg/g
EPA/AA Mean change from Baseline, Mean (SD) (1 g daily, Day 42): 0.1 (0.06)
DGLA Baseline Mean (SD) (1 g daily): 23.0 (5.19) μg/g
EPA/AA Baseline Mean (SD) (1 g daily): 0.1 (0.07)
AA LS Mean, 1 g versus 4 g (1 g versus 4 g): 8.4 µg/g
DGLA LS Mean, 1 g versus 4 g (1 g versus 4 g): 1.5 µg/g
DHA LS Mean, 1 g versus 4 g (1 g versus 4 g): 1.0 µg/g
EPA/AA LS Mean, 1 g versus 4 g (1 g versus 4 g): −0.18
AA Mean change from Baseline, Mean (SD) (2 g daily, Day 14): −3.1 (25.84) μg/g
DGLA Mean change from Baseline, Mean (SD) (2 g daily, Day 14): −2.6 (3.54) μg/g
DHA Mean change from Baseline, Mean (SD) (2 g daily, Day 14): −2.0 (9.46) μg/g
EPA/AA Mean change from Baseline, Mean (SD) (2 g daily, Day 14): 0.2 (0.04)
DGLA Mean change from Baseline, Mean (SD) (2 g daily, Day 28): −4.5 (3.58) μg/g
DHA Mean change from Baseline, Mean (SD) (2 g daily, Day 28): −6.2 (9.34) μg/g
EPA/AA Mean change from Baseline, Mean (SD) (2 g daily, Day 28): 0.02 (0.06)
DGLA Mean change from Baseline, Mean (SD) (2 g daily, Day 42): −5.3 (3.65) μg/g
DHA Mean change from Baseline, Mean (SD) (2 g daily, Day 42): −6.3 (9.42) μg/g
EPA/AA Mean change from Baseline, Mean (SD) (2 g daily, Day 42): 0.3 (0.06)
DGLA Baseline Mean (SD) (2 g daily): 23.0 (5.76) μg/g
EPA/AA Baseline Mean (SD) (2 g daily): 0.1 (0.06)
AA LS Mean, 2 g versus 4 g (2 g versus 4 g): 9.8 µg/g
DGLA LS Mean, 2 g versus 4 g (2 g versus 4 g): 1.5 µg/g
DHA LS Mean, 2 g versus 4 g (2 g versus 4 g): 1.0 µg/g
EPA/AA LS Mean, 2 g versus 4 g (2 g versus 4 g): −0.11
DGLA Mean change from Baseline, Mean (SD) (4 g daily, Day 14): −5.3 (4.10) μg/g
DHA Mean change from Baseline, Mean (SD) (4 g daily, Day 14): −6.9 (9.13) μg/g
EPA/AA Mean change from Baseline, Mean (SD) (4 g daily, Day 14): 0.3 (0.07)
DGLA Mean change from Baseline, Mean (SD) (4 g daily, Day 28): −7.1 (4.63) μg/g
DHA Mean change from Baseline, Mean (SD) (4 g daily, Day 28): −8.7 (11.63) μg/g
EPA/AA Mean change from Baseline, Mean (SD) (4 g daily, Day 28): 0.4 (0.11)
DGLA Mean change from Baseline, Mean (SD) (4 g daily, Day 42): −8.0 (4.98) μg/g
EPA/AA Mean change from Baseline, Mean (SD) (4 g daily, Day 42): 0.4 (0.14)
DGLA Baseline Mean (SD) (4 g daily): 24.0 (5.77) μg/g
EPA/AA Baseline Mean (SD) (4 g daily): 0.1 (0.04)
